Data on 31 molecules can be found in patent US8569344B2, “N-piperidinyl acetamide derivatives as calcium channel blockers” (Zalicus Pharmaceuticals Ltd., priority 2008, dated 2013).

The target of assay [1] is T1, human α1G T-type channels (Homo sapiens, UniProt O43497).
T1 construct: expressed in transfected cells; host or cells: HEK 293
Description: T-type calcium channel block, whole cell patch clamp in HEK cells (α1G). Particulars: HEK cells, patch clamp, mainly non-inactivated protocol; values above 10 μM shown as 10 μM, below 0.30 μM shown as 0.30 μM; read-out: T-type Calcium Channel Block α1G IC50. Format: cell-based. (In general: In patch-clamp work, channel activity is measured electrically.)

In assay [2] the target is T2, human α1H T-type channels (Homo sapiens, UniProt O95180).
T2 construct: expressed in transfected cells; host or cells: HEK 293
In words: T-type calcium channel block, whole cell patch clamp in HEK cells (α1H). Format: cell-based. Particulars: HEK cells, patch clamp, mainly non-inactivated protocol; values above 10 μM shown as 10 μM; read-out: T-type Calcium Channel Block α1H IC50.

T1 sequence (O43497 whole entry): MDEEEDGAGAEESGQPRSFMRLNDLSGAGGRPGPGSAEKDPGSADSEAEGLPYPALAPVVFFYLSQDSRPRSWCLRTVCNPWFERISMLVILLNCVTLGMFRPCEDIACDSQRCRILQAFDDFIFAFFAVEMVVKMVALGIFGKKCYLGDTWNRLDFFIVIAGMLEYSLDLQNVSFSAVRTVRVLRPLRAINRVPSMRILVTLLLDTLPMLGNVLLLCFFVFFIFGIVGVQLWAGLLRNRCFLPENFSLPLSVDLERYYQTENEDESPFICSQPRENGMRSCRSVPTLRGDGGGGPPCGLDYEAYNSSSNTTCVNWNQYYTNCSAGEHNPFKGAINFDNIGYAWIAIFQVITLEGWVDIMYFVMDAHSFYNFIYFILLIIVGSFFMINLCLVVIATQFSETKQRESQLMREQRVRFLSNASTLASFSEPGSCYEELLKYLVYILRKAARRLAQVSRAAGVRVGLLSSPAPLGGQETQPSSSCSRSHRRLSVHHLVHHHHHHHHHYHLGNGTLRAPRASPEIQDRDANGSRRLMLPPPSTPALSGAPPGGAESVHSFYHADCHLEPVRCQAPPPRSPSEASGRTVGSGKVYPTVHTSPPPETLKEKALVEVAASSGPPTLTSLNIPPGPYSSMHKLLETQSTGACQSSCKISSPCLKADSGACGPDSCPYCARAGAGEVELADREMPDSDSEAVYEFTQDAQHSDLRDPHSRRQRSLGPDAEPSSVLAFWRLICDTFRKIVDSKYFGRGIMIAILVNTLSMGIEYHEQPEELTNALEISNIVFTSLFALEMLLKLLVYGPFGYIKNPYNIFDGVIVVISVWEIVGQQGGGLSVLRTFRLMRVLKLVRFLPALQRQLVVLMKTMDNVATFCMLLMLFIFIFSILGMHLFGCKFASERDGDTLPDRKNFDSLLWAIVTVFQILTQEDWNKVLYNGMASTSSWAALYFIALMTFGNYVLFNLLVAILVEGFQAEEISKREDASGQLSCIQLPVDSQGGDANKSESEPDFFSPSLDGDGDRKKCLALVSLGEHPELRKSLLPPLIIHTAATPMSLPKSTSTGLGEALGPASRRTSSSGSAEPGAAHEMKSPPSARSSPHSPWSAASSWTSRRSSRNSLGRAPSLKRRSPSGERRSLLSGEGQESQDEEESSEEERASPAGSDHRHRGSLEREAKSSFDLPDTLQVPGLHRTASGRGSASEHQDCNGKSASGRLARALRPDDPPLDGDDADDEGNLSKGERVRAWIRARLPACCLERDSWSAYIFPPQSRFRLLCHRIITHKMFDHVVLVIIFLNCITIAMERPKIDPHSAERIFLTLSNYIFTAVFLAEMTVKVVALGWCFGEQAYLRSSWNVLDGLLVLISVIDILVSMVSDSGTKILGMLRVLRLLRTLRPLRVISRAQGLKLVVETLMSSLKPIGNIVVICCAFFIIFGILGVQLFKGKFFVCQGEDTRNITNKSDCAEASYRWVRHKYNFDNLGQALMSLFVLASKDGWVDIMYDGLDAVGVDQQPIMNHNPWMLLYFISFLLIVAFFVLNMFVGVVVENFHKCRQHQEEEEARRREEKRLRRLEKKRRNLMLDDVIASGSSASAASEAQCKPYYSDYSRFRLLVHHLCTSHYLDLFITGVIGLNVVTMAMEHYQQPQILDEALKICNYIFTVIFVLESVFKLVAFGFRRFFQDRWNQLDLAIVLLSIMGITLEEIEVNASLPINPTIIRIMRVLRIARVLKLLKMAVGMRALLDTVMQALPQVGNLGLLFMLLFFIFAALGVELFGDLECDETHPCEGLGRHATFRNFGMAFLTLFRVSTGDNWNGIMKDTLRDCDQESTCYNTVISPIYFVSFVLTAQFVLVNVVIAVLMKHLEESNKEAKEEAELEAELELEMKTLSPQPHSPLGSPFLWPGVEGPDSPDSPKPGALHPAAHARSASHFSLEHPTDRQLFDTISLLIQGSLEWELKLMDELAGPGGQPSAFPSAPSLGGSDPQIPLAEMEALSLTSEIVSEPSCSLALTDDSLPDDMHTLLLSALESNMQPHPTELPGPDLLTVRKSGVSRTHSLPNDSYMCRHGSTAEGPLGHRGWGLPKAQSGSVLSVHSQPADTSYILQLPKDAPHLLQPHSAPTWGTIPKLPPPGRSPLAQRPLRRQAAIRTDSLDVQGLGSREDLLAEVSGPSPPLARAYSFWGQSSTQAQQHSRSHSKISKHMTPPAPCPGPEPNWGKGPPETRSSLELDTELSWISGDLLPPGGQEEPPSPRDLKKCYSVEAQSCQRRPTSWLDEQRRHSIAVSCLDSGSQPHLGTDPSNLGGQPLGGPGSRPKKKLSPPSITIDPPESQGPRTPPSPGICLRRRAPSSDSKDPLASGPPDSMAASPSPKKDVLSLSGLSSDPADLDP
T2 sequence (O95180 whole entry): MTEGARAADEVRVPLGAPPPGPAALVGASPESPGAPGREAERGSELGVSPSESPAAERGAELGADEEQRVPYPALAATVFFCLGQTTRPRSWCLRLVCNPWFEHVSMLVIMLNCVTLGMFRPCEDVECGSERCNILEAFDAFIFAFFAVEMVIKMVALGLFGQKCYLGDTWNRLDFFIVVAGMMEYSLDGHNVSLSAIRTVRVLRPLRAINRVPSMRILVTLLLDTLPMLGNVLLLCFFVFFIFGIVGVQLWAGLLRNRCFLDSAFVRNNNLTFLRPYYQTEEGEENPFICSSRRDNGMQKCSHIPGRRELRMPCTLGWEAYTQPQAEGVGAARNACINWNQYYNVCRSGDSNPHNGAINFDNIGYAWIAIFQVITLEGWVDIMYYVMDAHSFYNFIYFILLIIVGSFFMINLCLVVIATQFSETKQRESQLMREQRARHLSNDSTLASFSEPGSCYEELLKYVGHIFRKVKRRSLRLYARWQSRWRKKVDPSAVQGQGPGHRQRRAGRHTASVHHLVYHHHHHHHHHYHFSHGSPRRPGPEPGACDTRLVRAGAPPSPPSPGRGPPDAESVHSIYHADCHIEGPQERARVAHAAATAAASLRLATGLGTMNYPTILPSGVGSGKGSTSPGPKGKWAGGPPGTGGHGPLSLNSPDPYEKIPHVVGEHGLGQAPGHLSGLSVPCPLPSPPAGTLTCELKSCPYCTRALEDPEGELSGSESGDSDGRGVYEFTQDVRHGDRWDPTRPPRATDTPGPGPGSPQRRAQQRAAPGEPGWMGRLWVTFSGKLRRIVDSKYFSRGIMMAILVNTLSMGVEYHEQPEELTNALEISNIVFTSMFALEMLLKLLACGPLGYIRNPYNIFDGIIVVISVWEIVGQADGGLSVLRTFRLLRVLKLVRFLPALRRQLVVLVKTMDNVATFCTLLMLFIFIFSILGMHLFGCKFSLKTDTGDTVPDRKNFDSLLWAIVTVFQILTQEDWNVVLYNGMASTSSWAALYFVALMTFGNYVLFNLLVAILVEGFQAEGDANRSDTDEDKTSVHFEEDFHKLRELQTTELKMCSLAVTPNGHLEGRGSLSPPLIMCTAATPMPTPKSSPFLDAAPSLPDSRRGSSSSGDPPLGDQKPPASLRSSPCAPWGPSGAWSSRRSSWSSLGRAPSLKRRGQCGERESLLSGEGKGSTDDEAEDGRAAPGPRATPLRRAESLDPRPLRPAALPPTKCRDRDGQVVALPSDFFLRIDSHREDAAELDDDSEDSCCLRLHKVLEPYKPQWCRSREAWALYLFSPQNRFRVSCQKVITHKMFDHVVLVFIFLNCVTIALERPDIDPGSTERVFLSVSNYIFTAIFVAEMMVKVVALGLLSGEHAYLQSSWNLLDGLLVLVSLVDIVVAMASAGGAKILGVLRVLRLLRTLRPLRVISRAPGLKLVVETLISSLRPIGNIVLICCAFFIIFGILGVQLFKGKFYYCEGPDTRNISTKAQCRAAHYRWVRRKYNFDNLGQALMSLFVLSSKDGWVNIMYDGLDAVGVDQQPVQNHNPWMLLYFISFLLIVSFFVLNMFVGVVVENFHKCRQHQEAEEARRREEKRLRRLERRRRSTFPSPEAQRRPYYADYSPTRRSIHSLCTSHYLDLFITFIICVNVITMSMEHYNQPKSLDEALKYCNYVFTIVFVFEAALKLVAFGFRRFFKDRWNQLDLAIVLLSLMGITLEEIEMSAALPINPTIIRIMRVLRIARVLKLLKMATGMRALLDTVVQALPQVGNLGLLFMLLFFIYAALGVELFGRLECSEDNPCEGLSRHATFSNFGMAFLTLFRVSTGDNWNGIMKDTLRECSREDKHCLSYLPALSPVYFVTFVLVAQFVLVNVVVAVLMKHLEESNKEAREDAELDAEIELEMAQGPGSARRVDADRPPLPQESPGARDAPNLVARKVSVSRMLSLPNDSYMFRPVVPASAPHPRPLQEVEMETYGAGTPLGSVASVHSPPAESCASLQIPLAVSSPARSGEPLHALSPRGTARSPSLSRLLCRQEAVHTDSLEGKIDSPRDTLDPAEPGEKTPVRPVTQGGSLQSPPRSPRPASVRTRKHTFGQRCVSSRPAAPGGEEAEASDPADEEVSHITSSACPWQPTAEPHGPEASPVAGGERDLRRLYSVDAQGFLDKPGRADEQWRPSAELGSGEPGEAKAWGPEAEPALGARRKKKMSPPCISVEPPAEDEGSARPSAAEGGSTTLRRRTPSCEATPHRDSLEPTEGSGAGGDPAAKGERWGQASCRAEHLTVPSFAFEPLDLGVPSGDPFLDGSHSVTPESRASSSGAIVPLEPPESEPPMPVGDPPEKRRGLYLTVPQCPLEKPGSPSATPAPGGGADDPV

The IC50 is the concentration at which inhibition is half-maximal. Take `CC(C)(C)OC(=O)NCCN1CCC(CNC(=O)c2cc(Br)cc(C(F)(F)F)c2)CC1` [Compound 41, tert-butyl 2-(4-((3-bromo-5-(trifluoromethyl)benzamido)methyl)piperidin-1-yl)ethylcarbamate]: the IC50 was < 0.3 µM in assay [1] and 0.15 µM in assay [2].
For `Cc1cc(C)cc(C(=O)NCC2CCN(CCNC(=O)OC(C)(C)C)CC2)c1` [Compound 42, tert-butyl 2-(4-((3,5-dimethylbenzamido)methyl)piperidin-1-yl)ethylcarbamate], in that order: 1.64 µM and 0.76 µM.
In the same order, the values of `CC(C)(C)OC(=O)NCCN1CCC(CNC(=O)c2cc(Cl)cc(Cl)c2)CC1` [Compound 43, tert-butyl 2-(4-((3,5-dichlorobenzamido)methyl)piperidin-1-yl)ethylcarbamate] are < 0.3 µM and 0.15 µM.
Take `CC(C)(C)OC(=O)NCCN1CCC(CNC(=O)c2cccc(OC(F)(F)F)c2)CC1` [Compound 44, tert-butyl 2-(4-((3-(trifluoromethoxy)benzamido)methyl)piperidin-1-yl)ethylcarbamate]: the IC50 in assay [1] came out at 0.62 µM; in assay [2] it was 0.32 µM.
In the same order, the values of `CC(C)(C)OC(=O)NCCN1CCC(CNC(=O)c2cc(F)cc(F)c2)CC1` [Compound 47, tert-butyl 2-(4-((3,5-difluorobenzamido)methyl)piperidin-1-yl)ethylcarbamate] are 3.11 µM and 0.88 µM.
For `CC(C)(C)OC(=O)NCCN1CCC(CNC(=O)c2cccc(Cl)c2)CC1` [Compound 48, tert-butyl 2-(4-((3-chlorobenzamido)methyl)piperidin-1-yl)ethylcarbamate], in that order: 1.57 µM and 0.79 µM.
As for `CC(C)(C)OC(=O)NCCN1CCC(CNC(=O)c2cc(C(C)(C)C)cc(C(C)(C)C)c2)CC1` [Compound 49, tert-butyl 2-(4-((3,5-di-tert-butylbenzamido)methyl)piperidin-1-yl)ethylcarbamate], the IC50 in assay [1] amounted to 0.34 µM; in assay [2] it was 7.3 µM.
In the same order, the values of `CC(C)(C)OC(=O)NCCN1CCC(CNC(=O)c2ccc(Oc3ccccc3)cc2)CC1` [Compound 57, tert-buyl 2-(4-((4-phenoxybenzamido)methyl)piperidin-1-yl)ethylcarbamate] are 1.05 µM and > 10 µM.
For `O=C(NCC1CCN(C(=O)[C@@H]2CCCCN2)CC1)c1cc(C(F)(F)F)cc(C(F)(F)F)c1` [Compound 88, (S)-N-((1-(piperidine-2-carbonyl)piperidin-4-yl)methyl)-3,5-bis(trifluoromethyl)benzamide], in that order: > 10 µM and > 10 µM.
For the molecule `CC(C)(C)C(C)(O)C(=O)N1CCC(CNC(=O)c2cc(C(F)(F)F)cc(C(F)(F)F)c2)CC1` (centres unmarked) [Compound 89, N-((1-(2-hydroxy-2,3,3-trimethylbutanoyl)piperidin-4-yl)methyl)-3,5-bis(trifluoromethyl)benzamide], the IC50 was 4.1 µM in assay [1] and > 10 µM in assay [2].
For `CC(C)(C)C(O)CN1CCC(CC(=O)Nc2cc(F)cc(C(F)(F)F)c2)CC1` (centres unmarked) [Compound 169, N-(3-fluoro-5-(trifluoromethyl)phenyl)-2-(1-(2-hydroxy-3,3-dimethylbutyl)piperidin-4-yl)acetamide], the half-inhibitory concentration (IC50) was < 0.3 µM in assay [1] and 0.23 µM in assay [2].
In the same order, the values of `Cc1ccc(-c2csc(NC(=O)CC3CCN(CC(O)C(C)(C)C)CC3)n2)cc1` (centres unmarked) [Compound 172, 2-(1-(2-hydroxy-3,3-dimethylbutyl)piperidin-4-yl)-N-(4-p-tolylthiazol-2-yl)acetamide] are 1.62 µM and > 10 µM.
As to `CC(C)(C)C(O)CN1CCC(CC(=O)NCc2ccc(Oc3ccccc3)cc2)CC1` (centres unmarked) [Compound 174, 2-(1-(2-hydroxy-3,3-dimethylbutyl)piperidin-4-yl)-N-(4-phenoxybenzyl) acetamide], the IC50 is 2.48 µM in assay [1] and > 10 µM in assay [2].
On to `O=C(CC1CCN(C(=O)[C@@H]2CCCCN2)CC1)Nc1cc(C(F)(F)F)cc(C(F)(F)F)c1` [Compound 195, (S)-N-(3,5-bis(trifluoromethyl)phenyl)-2-(1-(piperidine-2-carbonyl)piperidin-4-yl)acetamide], for which the IC50 in assay [1] turned out to be 4.78 µM; in assay [2] it was 1.97 µM.
For `CC(C)(C)OC(=O)NC(CN1CCC(CC(=O)NCCc2c[nH]c3ccc(F)cc23)CC1)C(C)(C)C` (centres unmarked) [Compound 196, tert-butyl 1-(4-(2-(2-(5-fluoro-1H-indol-3-yl)ethylamino)-2-oxoethyl)piperidin-1-yl)-3,3-dimethylbutan-2-ylcarbamate], in that order: > 10 µM and > 10 µM.
For `CC(C)(C)OC(=O)NC(CN1CCC(CC(=O)NCc2cc(Cl)cc(Cl)c2)CC1)C(C)(C)C` (centres unmarked) [Compound 198, tert-butyl 1-(4-(2-(3,5-dichloro-benzylamino)-2-oxoethyl)piperidin-1-yl)-3,3-dimethylbutan-2-ylcarbamate], the figures for the half-inhibitory concentration (IC50) in assay [1] and in assay [2] were 0.4 µM and 1.3 µM, respectively.
For `CC(C)(C)C(CN1CCC(CC(=O)NC(c2cccc(F)c2)c2cccc(F)c2)CC1)NS(=O)(=O)C1CC1` (centres unmarked) [Compound 221, N-(bis(3-fluorophenyl)methyl)-2-(1-(2-(cyclopropanesulfonamido)-3,3-dimethylbutyl)piperidin-4-yl)acetamide], in that order: 4.08 µM and > 10 µM.
Consider `CC(C)S(=O)(=O)NC(CN1CCC(CC(=O)NC(c2cccc(F)c2)c2cccc(F)c2)CC1)C(C)(C)C` (centres unmarked) [Compound 222, N-(bis(3-fluorophenyl)methyl)-2-(1-(3,3-dimethyl-2-(1-methylethylsulfonamido)butyl)piperidin-4-yl)acetamide], for which the IC50 in assay [1] was 2.03 µM; in assay [2], > 10 µM.
For `CCOC(=O)NC(CN1CCC(CC(=O)NCc2cc(Cl)cc(Cl)c2)CC1)C(C)(C)C` (centres unmarked) [Compound 224, ethyl 1-(4-(2-(3,5-dichlorobenzyl-amino)-2-oxoethyl)piperidin-1-yl)-3,3-dimethylbutan-2-ylcarbamate], in that order: 3.76 µM and 6.19 µM.
For `CC(C)COC(=O)NC(CN1CCC(CC(=O)NCc2cc(Cl)cc(Cl)c2)CC1)C(C)(C)C` (centres unmarked) [Compound 225, isobutyl 1-(4-(2-(3,5-dichlorobenzyl-amino)-2-oxoethyl)piperidin-1-yl)-3,3-dimethylbutan-2-ylcarbamate], in that order: 0.52 µM and 0.77 µM.
In the same order, the values of `O=C(NCC1CCN(C(=O)CN2CCC(F)(F)C2)CC1)c1cc(C(F)(F)F)cc(C(F)(F)F)c1` [Compound 226, N-((1-(2-(3,3-difluoropyrrolidin-1-yl)acetyl)piperidin-4-yl)methyl)-3,5-bis(trifluoromethyl)benzamide] are > 10 µM and > 10 µM.
For the molecule `O=C(NCC1CCN(CCNS(=O)(=O)C2CC2)CC1)c1cccc(C(F)(F)F)c1` [Compound 228, N-((1-(2-(cyclopropanesulfonamido)ethyl)piperidin-4-yl)methyl)-3-(trifluoromethyl)benzamide], the IC50 in assay [1] was determined as 1.67 µM; in assay [2], 2.35 µM.
In the same order, the values of `CC(C)(C)Oc1cccc(C(=O)NCC2CCN(CCNS(=O)(=O)C3CC3)CC2)c1` [Compound 229, 3-tert-butoxy-N-((1-(2-(cyclopropanesulfonamido)ethyl)piperidin-4-yl)methyl)benzamide] are > 10 µM and > 10 µM.
On to `O=C(NCC1CCN(CCNS(=O)(=O)C2CC2)CC1)c1cc(F)cc(C(F)(F)F)c1` [Compound 230, N-((1-(2-(cyclopropanesulfonamido)ethyl)piperidin-4-yl)methyl)-3-fluoro-5-(trifluoromethyl)benzamide], for which the concentration for half-maximal inhibition (IC50) in assay [1] is 4.76 µM; in assay [2], 0.85 µM.
In the same order, the values of `O=C(/C=C/c1cc(F)cc(F)c1)NCC1CCN(CCNS(=O)(=O)C2CC2)CC1` [Compound 231, (E)-N-((1-(2-(cyclopropanesulfonamido)ethyl)piperidin-4-yl)methyl)-3-(3,5-difluorophenyl)acrylamide] are > 10 µM and > 10 µM.
In the same order, the values of `O=C(NCC1CCN(CCNS(=O)(=O)C2CC2)CC1)c1ccc(OC(F)(F)F)cc1` [Compound 232, N-((1-(2-(cyclopropanesulfonamido)ethyl)piperidin-4-yl)methyl)-4-(trifluoromethoxy)benzamide] are 5.01 µM and 2.87 µM.
For `Cc1cc(C)cc(C(=O)NCC2CCN(CCNS(=O)(=O)C3CC3)CC2)c1` [Compound 233, N-((1-(2-(cyclopropanesulfonamido)ethyl)piperidin-4-yl)methyl)-3,5-dimethylbenzamide], in that order: 2.04 µM and 1.38 µM.
Consider `O=C(NCC1CCN(CCNS(=O)(=O)C2CC2)CC1)c1cccc(OC(F)(F)F)c1` [Compound 234, N-((1-(2-(cyclopropanesulfonamido)ethyl)piperidin-4-yl)methyl)-3-(trifluoromethoxy)benzamide], for which the results for the IC50 in assay [1] and in assay [2] were 1.45 µM and 0.97 µM, respectively.
For `COc1cc(C(=O)NCC2CCN(CCNS(=O)(=O)C3CC3)CC2)cc(C(F)(F)F)c1` [Compound 235, N-((1-(2-(cyclopropanesulfonamido)ethyl)piperidin-4-yl)methyl)-3-methoxy-5-(trifluoromethyl)benzamide], in that order: < 0.3 µM and 0.44 µM.
In the same order, the values of `CC(C)S(=O)(=O)NCCN1CCC(CNC(=O)c2cccc(Cl)c2)CC1` [Compound 236, 3-chloro-N-((1-(2-(1-methylethylsulfonamido)ethyl)piperidin-4-yl)methyl)benzamide] are 0.86 µM and 1.72 µM.
In the same order, the values of `CC(C)(C)c1ccc(C(=O)NCC2CCN(CCNS(=O)(=O)C3CC3)CC2)cc1` [Compound 238, 4-tert-butyl-N-((1-(2-(cyclopropanesulfonamido)ethyl)piperidin-4-yl)methyl)benzamide] are > 10 µM and > 10 µM.
